Reference: patent EP1379634B1 (THE UNIVERSITY OF GEORGIA RESEARCH FOUNDATION, INC., priority 2001, dated 2002)
Residues, ends and D or L forms follow the SMILES beside them. *: point of attachment. AFC = O=c1cc(C(F)(F)F)c2ccc(N*)cc2o1; Cbz = O=C(OCc1ccccc1)*; CH2F = FC*

What was measured:
[1] = system: Taenia solium crude mix; test: Substrate cleavage screen of AFC-linked peptides (Step II), crude mix; assay type: biochemical; conditions: 0.4 M Citrate, pH 4.9, 18 h, 37 °C
Method: (§1) In this step, the most efficacious substrate for detection of the cysteine protease (high Kcat substrate) was determined in vitro along with those substrates which were not well cleaved (low kcat substrates). From this point forward, the following conditions refer to all assays: "assay buffer" refers to 0.4 M Citrate, pH 4.9 (the pH optima of the protease). Incubation time was 18 hours at 37°C. These conditions were determined by our preliminary data to be best for kinetic evaluation of the protease. […] The experiments were conducted in 6X50 […] Borosilicate mini-culture tubes (Fisher Scientific), and a fluorometer (Turner) was employed for detection of AFC cleavage.
In order to prepare the Taenia solium "crude mix", dry frozen Taenia solium cysts were obtained from 6-12 month old cysticercotic pigs from villages in an endemic area of porcine cysticercosis in Mexico. Metacestodes were carefully dissected from the parasitized tissues, washed three times with PBS, and lyophilized. Parasite extracts were prepared by suspending 0.1 grams of dry frozen cysts in 10 ml of extraction buffer (0.4 M citrate, pH 4.9) at room temperature. The cysts were vortexed for three five-minute intervals with intermittent incubations (5 min) at 4 °C. Particulate material was removed by centrifugation (20,000 x g, 120 min) and the resulting soluble fraction filtered ([…]). In assay buffers, the detectable amount of the crude mix, as described above, was employed and incubated with the target substrates.
(§2) Vmax for the cleavage of substrates by the purified target protease and Vmax for substrates cleaved by the crude mix protease were each calculated using conventional kinetic modeling calculations already described in the art.

[2] = system: purified Taenia solium cysteine protease; test: Substrate cleavage screen of AFC-linked peptides (Step II), purified protease; assay type: biochemical; conditions: 0.4 M Citrate, pH 4.9, 0.01 M cysteine, 18 h, 37 °C
Method: as §1
Since the full 8,420 amino acid possibilities for cleavage were not available, representative substrates were employed. […] In order to choose this subset, representative amino acids (i.e., selected from the categories of acidic, basic, nonpolar, uncharged) were chosen so as to create as many categories of motifs as feasible for the P3-P1 positions with a set of 67 small peptides (see lists at Fig. 4a and Fig. 4b). The target cysteine protease from Taenia solium was isolated using the purification methods described previously in the patent WO 00/63350.
Approximately 1 ug (or a proteolytically detectable amount) of the purified target cysteine protease was incubated individually, with 1 ug of each of the available substrates in 500 uL of assay buffer. During this setup, the substrate was pre-incubated in the assay buffer for a short period of time (20 minutes) in order to reach an equilibrated status before the addition of the protease. Cleavage assessments were based upon the property of the protease to cleave synthetic peptide substrates linked at the C-terminus to 7-Amino-4-Trifluoromethyl Coumarin (AFC) as previously described. AFC linked tripeptides, dipeptides, and monopeptides, (with a variety of permutations at P3-P1) were available from Enzyme Systems Products (Livermore, CA), and were used as the source of the subset. Following incubation of enzyme preparations overnight (18 h, 37 °C) with peptide in assay buffer (Citrate, pH 4.9, supplemented with 0.01 M cysteine), free AFC concentrations were measured fluorometrically (excitation 405 nm, emission 505 nm). The proteolytic cleavage released the AFC group, which was measurable as a free molecule by a standard fluorometer and converted into molar quantities, based upon a previously established standard curve. The simplicity of AFC detection by the fluorometer was a key factor which expedited and simplified the procedures.
In the assay, 1 ug of the purified Taenia cysteine protease was added to a saturating amount of Z-Phe-Arg-AFC (4X10^-5 M) in assay buffer. The experiment was conducted in triplicate and repeated at least 5 times until we were certain that variability in AFC cleavage was not statistically significant.
as §2

[3] = system: T. solium (cysteine); test: Selectivity test (Steps VI and IX), T. solium cysteine protease; assay type: biochemical, Taenia solium; conditions: inhibitor 3 X 10^-10 M
Method: (§3) In order to perform the assay, the vehicle (for Step VI) or inhibitor (for Step IX) were incubated with the appropriate substrate in the correct assay buffer and allowed to equilibrate. Subsequently, the protease was added, and the assay was allowed to incubate for an appropriate time. The concentrations used in this experiment were as follows: Vehicle was set up at 4 X 10^-5 M in final assay buffer; Inhibitor was set up at 3 X 10^-10 M in the final assay buffer. Preferably the dosages employed should be the minimal amount of vehicle or inhibitor necessary to induce inhibition. […] Substrates were set up based upon the preferred substrate for cleavage of the particular enzyme.
(§4) Positive controls were set up similarly as described for test controls, except that a solvent blank was added in substitution for the inhibitor or vehicle (in a volume equal to the volume of inhibitor or vehicle addition). All of the inhibitors and vehicles could be dissolved in dimethylsulfoxide (DMSO), and therefore, this was the solvent of choice. Negative controls were set up by adding the inhibitor or vehicle and the preferred substrates in a tube without the protease. All potential non-proteolytic liberation of AFC was therefore controlled for in this tube.
(§5) All controls were set up in triplicate, and experiments were repeated a minimum of five times.
(§6) Percent inhibition was calculated as: %Inhibition = ((AFC positive for "SI"−AFC negative for "SI")−(AFC test−AFC negative for "SI"))/(AFC positive for "SI"−AFC negative for "SI") × 100 [formula]
(§7) In this preliminary test, we employed the following human-derived enzymes (with indicated mechanistic class in parentheses): Cathepsin B (cysteine), Cathepsin L (cysteine), Cathepsin H (cysteine), Cathepsin D (aspartic), Trypsin (serine), the purified Taenia solium cysteine protease, and the Taenia solium crude mix. Cathepsin B was prepared in an assay buffer of 10 mM L-cysteine in 0.4 M Citrate buffer, pH 6.1, using Z-ARR-AFC as the cleavage substrate. Cathepsin L was prepared in an assay buffer of 10 mM L-cysteine in 0.4 M Citrate buffer, pH 5.5, using Z-FR-AFC as the cleavage substrate. Cathepsin H was prepared in an assay buffer of 10 mM L-cysteine in 0.15 M PBS buffer, pH 6.8, using L-R-AFC as the cleavage substrate. Cathepsin D was prepared in an assay buffer of 0.15 M PBS, pH 7.1, using Z-RGFFP-AFC as the cleavage substrate. Trypsin was prepared in an assay buffer of 0.15 M PBS, pH 8.0, supplemented with 100 mM CaCl2 and with Z-R-AFC as the cleavage substrate. Enzyme was incubated so that it was at least 50 times less than the concentration of substrate in order to insure saturating conditions.

[4] = system: Trypsin; test: Selectivity test (Steps VI and IX), Trypsin; assay type: biochemical, human; conditions: inhibitor 3 X 10^-10 M; pH 8.0, substrate Z-R-AFC; 0.0003 µM
Method: as §3, §4, §5, §6, §7

[5] = system: BALB/c mice; test: Observation of side effects in treated mice; assay type: in vivo
[6] = system: Taenia crassiceps cysts; test: Short-term protection of BALB/c mice from cysticercosis infection; assay type: in vivo
[7] = system: normal BALB/c mouse splenocytes; test: Splenocyte proliferation (3H-thymidine incorporation) with or without Con-A; assay type: cell-based
[8] = system: purified Taenia solium cysteine protease; test: Protease inactivator inhibition assay against cocktail, EC100 and Ki (Step VII); assay type: biochemical; conditions: for % Inhibition of T. solium CP in vitro: concentration not stated in Table 4; for ranking by EC100: dilution study, nanomolar levels
Excerpt: Once the protease inactivators were synthesized in the organic laboratory, they were to be tested for the lowest efficacious concentrations at which they induced 100% inhibition of the target protease (EC100). The top percent cocktail that was employed in the final vehicle selection step of Step III was employed as the source of competition for the inhibitors. In this case, this was the 7.9% cocktail that was comprised of Z-FR-AFC, Z-FAR-AFC, Z-AP-AFC, Z-AAK-AFC, and Z-VLR-AFC. The final result would be a ranking of transition state candidate protease inactivators with a high ranking directly correlating to a low EC100 value. The following steps describe the assay: • Step A: Initial Screening. To set up the test control, each protease inactivator was first incubated with the 5% cocktail (which provided the final differentiation of vehicles in Step III). To begin with, the protease inactivator was incubated at a concentration of 3 X 10^-9M in 500 ul of assay buffer (0.2 M Citrate, pH 4.9, supplemented with 10mM L-cysteine). This concentration was determined by a series of inhibitor dilutions to be the best inhibitor concentration at which a differentiation in inhibitor potential could be noted. Next, a concentration equal to 4 X 10^-5M for each of the individual cocktail components, was added to the mix. The components were allowed to equilibrate for a period of 30 minutes. Finally, active purified enzyme was added to the tubes at a concentration which was always at least 50 times less than the concentration of the lowest concentration in the mix (so as to provide saturating conditions.) This concentration varied from purification to purification, and the amount that was added depended upon the yield and specific activity of the purified protease. Positive controls were set up similarly as described for test controls, except that solvent was added in substitution for the protease inactivator (in a volume equal to the […] volume addition). All of the protease inactivators could be dissolved in dimethylsulfoxide (DMSO), and therefore, this was the solvent of choice. Negative controls were set up by adding the protease inactivator and the cocktail substrates in a tube, without the protease. All potential non-proteolytic induced liberation of AFC was therefore controlled for in this tube. All controls were set up in triplicate, and experiments repeated a minimum of five times. The assays were incubated at 37°C, overnight. Percent inhibition was calculated as: %Inhibition = ((AFC positive for "SI"−AFC negative for "SI")−(AFC test−AFC negative for "SI"))/(AFC positive for "SI"−AFC negative for "SI") × 100 [formula] • Step B: Inhibitor Dilution Studies and formation of a ranked list of protease inactivators based upon EC100 values. […] Because of this, a dilution study was required in order to determine a viable ranking. Thus, the concentration of each of the protease inactivators was lowered with a dose response setup until the most efficacious concentration for 100% inhibition (EC100) could be determined. The inhibitors had to be diluted to nanomolar levels in order to establish a differentiable EC100 pattern. The final result of the assay was a ranked candidate list of protease inactivators. A lower EC100 was attributable to a higher ranking and vice-versa. • Step C: Determination of Inhibitor Ki and mode of inhibition, and re-ranking of EC100 list with inhibitor Ki. Ki of each of the top ranked protease inactivators, based upon low EC100 values, was assessed next for the top 5 EC100 inhibitors.
In order to determine Ki, all of the high Vmax cocktail substrates were employed for Ki determination (since Ki of the inhibitor for the enzyme is the same regardless of the substrate). To insure the highest accuracy, Ki was to be determined upon a minimum of at least three of the high Kcat substrates. Nonlinear fitting and the Dixon plot were both employed to determine Ki of the top ranked protease inactivators. […]

[9] = target: Cathepsin L (Homo sapiens, UniProt P07711); test: Selectivity test (Steps VI and IX), Cathepsin L; assay type: biochemical; conditions: inhibitor 3 X 10^-10 M; pH 5.5, substrate Z-FR-AFC; 0.0003 µM
Method: as §3, §4, §5, §6, §7

Sequence of Cathepsin L (P07711 114-333): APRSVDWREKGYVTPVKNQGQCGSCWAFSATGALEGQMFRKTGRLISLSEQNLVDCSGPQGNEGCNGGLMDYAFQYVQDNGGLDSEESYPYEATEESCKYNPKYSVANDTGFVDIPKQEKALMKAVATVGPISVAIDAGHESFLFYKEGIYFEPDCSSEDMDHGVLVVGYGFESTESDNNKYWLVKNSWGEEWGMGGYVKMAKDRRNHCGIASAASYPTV

For `C[C@H](N)C(=O)N1CCC[C@H]1C(=O)Nc1ccc2c(C(F)(F)F)cc(=O)oc2c1` [AP-AFC] (H-Ala-Pro-{AFC}), the “cleavage of AFC substrate (Vmax)” value [1] was “most cleaved”.
`C[C@H](NC(=O)OCc1ccccc1)C(=O)N[C@@H](C)C(=O)N[C@@H](CCCCN)C(=O)Nc1ccc2c(C(F)(F)F)cc(=O)oc2c1` [Z-AAK-AFC] (Cbz-Ala-Ala-Lys-{AFC}) was tested, and the “cleavage of AFC substrate (Vmax)” value [1] was “most cleaved”.
For `C[C@H](NC(=O)[C@H](Cc1ccccc1)NC(=O)OCc1ccccc1)C(=O)N[C@@H](CCCNC(=N)N)C(=O)Nc1ccc2c(C(F)(F)F)cc(=O)oc2c1` [Z-FAR-AFC] (Cbz-Phe-Ala-Arg-{AFC}), the “cleavage of AFC substrate (Vmax)” value [1] was “most cleaved”.
In the case of `N=C(N)NCCC[C@H](NC(=O)[C@H](Cc1ccccc1)NC(=O)OCc1ccccc1)C(=O)Nc1ccc2c(C(F)(F)F)cc(=O)oc2c1` [Z-FR-AFC, Z-Phe-Arg-AFC, reference compound] (Cbz-Phe-Arg-{AFC}), the “cleavage of AFC substrate (Vmax)” value [1] is reported as “most cleaved”, the “cleavage of AFC substrate (Vmax)” value [2] is reported as “cleaved” and the “cleavage of AFC substrate (Vmax)” value ([2]; listed as Z-Phe-Arg-AFC) is reported as “highest Vmax”.
`CC(C)C[C@H](NC(=O)[C@H](CC(C)C)NC(=O)[C@H](CC(C)C)NC(=O)OCc1ccccc1)C(=O)CF` [Z-LLL-FMK, Z-Leu-Leu-Leu-fluoromethylketone] (Cbz-Leu-Leu-Leu-CH2F) was tested, and the “% inhibition” value [3] was 98%, the “% inhibition” value [4] was 0% and the “side effects in treated animals” value ([5]; long or short-term period) was “only negligible side effects”. For the same molecule, the “side effects in treated mice” value ([5]; long-term studies) was “no side effects”, the “% Therapeutic protection of BALB/c mice” value ([6]; inhibitor treatment began two weeks after infection) was 60% and the “proliferative response (3H-thymidine incorporation)” value ([7]; inhibitor alone) was “do not induce a proliferative response”. For the same molecule, the “toxicity to splenocytes in vitro” value ([7]; preliminary results) was “nontoxic”, the “% Inhibition of T. solium CP in vitro” value [8] was 100% and the “ranking by EC100” value [8] was “top inhibitors”. For the same molecule, the “% inhibition” value [9] was “almost half of the inhibition of the Taenia solium cysteine protease”.
For `CC(C)C[C@@H](/C=C/S(C)(=O)=O)NC(=O)[C@H](CC(C)C)NC(=O)[C@H](CC(C)C)NC(=O)OCc1ccccc1` [Z-LLL-VS, Z-Leu-Leu-Leu-vinylsulfone], the “ranking by EC100” value [8] was “top inhibitors”.
For `CC(C)C[C@H](NC(=O)[C@@H](NC(=O)OCc1ccccc1)C(C)C)C(=O)N[C@@H](CCCNC(=N)N)C(=O)Nc1ccc2c(C(F)(F)F)cc(=O)oc2c1` [Z-VLR-AFC] (Cbz-Val-Leu-Arg-{AFC}), the “cleavage of AFC substrate (Vmax)” value [1] was “most cleaved”.
With “Leu-Phe-Ketoamide-Pyridyl [K-Pyr, reference compound]” the “% Prophylactic protection of BALB/c mice” value ([6]; pre-injected two days, 10 T. crassiceps cysts/mouse, dosed daily four weeks, cysts counted after one month) was 40% and the “% Inhibition of T. solium CP in vitro” value [8] was 80%.
